Laboratory results reported in patent publication US20040048791A1, “Method for treating neoplastic cells using cycloprodigiosin or salt thereof” (priority 2002, published 2004).
“Also recorded” adds a separate entry of the source. Counter-ions that a name gives are not always drawn.

Tests used:
[1] = system: caspase-3; assay: Caspase-3 assay with DEVD-AFC on cell extracts; type: cell-based; conditions: HeLa cells, cPrG-HCl and TNFα, FIG. 1B; hydrochloride
Description: Assay for apoptotic processes: Cell viability was determined by dye exclusion assay using 0.1% trypan blue. DNA fragmentation was analyzed as described previously (Kawauchi, K. et al. (1997) Biochem. Biophys. Res. Commun. 237, 543-547). In the caspase-3 assay, cells were disrupted by freeze-thaw in an extraction buffer (50 mM Tris-HCl, pH7.4, 1 mM EGTA, 5 mM EDTA, 5 mM MgCl2, 1 mM APMSF, 10 μg/ml pepstatin, 10 μg/ml leupeptin, and 1 mM DTT). Then the suspension was centrifuged at 15,000 rpm for 20 min, and the supernatants obtained were incubated at 37° C. for 60 min in a reaction buffer (50 mM Tris-HCl, pH7.4, 1 mM EDTA, 10 mM EGTA) with 20 μM of the fluorogenic substrate DEVD-AFC (Peptide Institute, Inc., Japan). Cleavage of the substrates was quantified by measuring the fluorescence of 7-amino-4-trifluomethyl coumarin released using a spectrofluorometer (Shimadzu RF5000) with excitation at 380 mn and emission at 460 nm.
HeLa cells were treated with TNFα and cPrG.HCl and the effect of cPrG.HCl on apoptosis was examined by measuring DNA fragmentation and survivability.

[2] = system: CMV promoter; assay: CMV promoter-dependent luciferase gene expression (control); type: cell-based; conditions: FIG. 2B
Description: Luciferase gene reporter assay and Kinase assays of IKK: HeLa cells were transfected with the reporter plasmids described above using Lipofectin (GIBCO BRL). After 24-48 hr, the luciferase activity was determined using the Luciferase Assay System (Promega). The kinase activity of IKKα and IKKβ were analyzed by immune complex kinase assay as described previously (Oka, S., Kamata, H., Kamata, K., Yagisawa, H. and Hirata, H. (2000) FEBS Lett. 472, 196-202). The substrates was using GST-IκBα(1-55) or GST-p65(399-551).

[3] = target: PKA (Homo sapiens, UniProt P17612); assay: PKA activity in vitro; type: biochemical; conditions: FIG. 13, hydrochloride
Excerpt: (§1) Accordingly, in order to identify the p65 kinase which cPrG-HCl suppressed, the effect of cPrG-HCl on PKA (FIG. 13), casein kinase II (CKII) (FIG. 12), and IκB kinase (IKK) (FIG. 14) was studied in vitro.

[4] = target: T1, IκB kinase (IKK) (Homo sapiens, UniProt O14920+O15111); assay: IκB kinase activity in vitro; type: biochemical; conditions: FIG. 14, hydrochloride
T1 sequence (O15111 1-745): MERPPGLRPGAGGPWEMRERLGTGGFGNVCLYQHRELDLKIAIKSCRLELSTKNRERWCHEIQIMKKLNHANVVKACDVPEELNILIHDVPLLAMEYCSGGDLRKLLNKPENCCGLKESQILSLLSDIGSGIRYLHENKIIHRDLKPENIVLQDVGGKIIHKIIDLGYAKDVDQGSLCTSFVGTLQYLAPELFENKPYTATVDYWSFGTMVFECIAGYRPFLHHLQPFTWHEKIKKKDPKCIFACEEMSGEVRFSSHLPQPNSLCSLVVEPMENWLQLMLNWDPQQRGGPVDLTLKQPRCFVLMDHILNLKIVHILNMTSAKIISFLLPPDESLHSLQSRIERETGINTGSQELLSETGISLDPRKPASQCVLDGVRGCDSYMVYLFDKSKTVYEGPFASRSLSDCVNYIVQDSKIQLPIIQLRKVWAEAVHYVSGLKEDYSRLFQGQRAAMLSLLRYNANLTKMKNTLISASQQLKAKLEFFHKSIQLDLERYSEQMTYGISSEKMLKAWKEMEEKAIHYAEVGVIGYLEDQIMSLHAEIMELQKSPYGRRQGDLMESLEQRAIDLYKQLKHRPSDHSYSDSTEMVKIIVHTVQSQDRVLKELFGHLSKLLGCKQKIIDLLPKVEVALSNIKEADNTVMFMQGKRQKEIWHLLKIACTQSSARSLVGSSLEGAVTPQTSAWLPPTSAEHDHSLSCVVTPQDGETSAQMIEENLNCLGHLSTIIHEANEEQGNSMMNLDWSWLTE
T1 sequence (O14920 1-756): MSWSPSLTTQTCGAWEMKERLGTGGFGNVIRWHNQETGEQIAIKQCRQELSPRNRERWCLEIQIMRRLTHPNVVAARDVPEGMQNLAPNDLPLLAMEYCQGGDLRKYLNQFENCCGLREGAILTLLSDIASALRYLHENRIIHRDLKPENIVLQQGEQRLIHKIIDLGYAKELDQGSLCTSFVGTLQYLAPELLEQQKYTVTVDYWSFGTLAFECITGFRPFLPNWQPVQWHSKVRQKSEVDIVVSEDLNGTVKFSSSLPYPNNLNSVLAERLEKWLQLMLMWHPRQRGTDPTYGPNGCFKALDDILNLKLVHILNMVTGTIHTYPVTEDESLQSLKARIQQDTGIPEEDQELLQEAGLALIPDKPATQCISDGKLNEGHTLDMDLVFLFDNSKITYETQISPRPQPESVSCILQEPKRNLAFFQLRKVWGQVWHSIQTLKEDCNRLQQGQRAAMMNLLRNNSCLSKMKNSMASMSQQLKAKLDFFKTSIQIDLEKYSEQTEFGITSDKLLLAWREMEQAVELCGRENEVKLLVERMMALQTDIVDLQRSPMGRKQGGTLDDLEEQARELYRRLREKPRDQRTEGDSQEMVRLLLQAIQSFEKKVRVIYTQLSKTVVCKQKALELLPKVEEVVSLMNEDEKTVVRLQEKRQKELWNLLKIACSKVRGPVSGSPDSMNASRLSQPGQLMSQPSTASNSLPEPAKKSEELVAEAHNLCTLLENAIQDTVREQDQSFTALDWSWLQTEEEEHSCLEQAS
Excerpt: as §1

[5] = system: NF-κB; assay: NF-κB luciferase reporter assay in U373, 293, COS7 and MKN45 cells; type: cell-based, human; African green monkey; conditions: all the cells tested: U373, 293, COS7, MKN45; FIGS. 6A to 6F
Description: In order to find out whether the suppression of NF-κB and AP-1 activation was specific to HeLa cells used above, analysis was made with various kind of cells. The cells used were U373 cells (human brain tumor cells), 293 cells (human embryo-derived kidney cells), COS7 cells (African green monkey kidney-derived cells), and MKN45 cells (human gastric tumor cells).
The NF-κB reporter plasmid pIG3Luc was incorporated into cells by transfection. After 24 hours, the cells were pretreated with cPrG-HCl at a specified concentration for 1 hour and then stimulated with TNFα (20 ng/ml) or PMA (1 μg/ml) for 4 hours, after which luciferase activity was measured. Each activity was corrected for the amount of protein.

Q: How did the caspase-3 activation [1] turn out when `COC1=CC(c2ccc[nH]2)=N/C1=C\c1[nH]c(C)c2c1C(C)CCC2` (centres unmarked) [cPrG-HCl, Cycloprodigiosin hydrochloride] was run?
A: The caspase-3 activation was “markedly induced; also recorded: marked synergistic caspase-3 activation”.

Q: What about the “expression of the CMV promoter-dependent luciferase gene” value [2] of the same compound?
A: The value was “did not inhibit”.

Q: What about the “effect on PKA activity” value [3] of the same compound?
A: Its value is “does not directly suppress; also recorded: no suppressive effect”.

Q: What about the “effect on IκB kinase (IKK) activity” value [4] of the same compound?
A: The value was “does not directly suppress; also recorded: no suppressive effect”.

Q: What about the NF-κB transcriptional activation [5] of the same compound?
A: Its NF-κB transcriptional activation is “suppressed”.
